Among the data in US10233182B2, “Substituted spirocyclic inhibitors of autotaxin” (X-Rx, Inc., priority 2014, dated 2019) are IC50 values, retold here.

Where a name gives a salt, the structure may show the parent alone.

The target in the assay is Autotaxin (Homo sapiens (Human), UniProt Q13822). The experiment in a line: Autotaxin LPC Cascade Assay. Format: biochemical. The note with it: Autotaxin 5 nM, LPC 100 μM, choline oxidase/HRP/Ampliflu Red fluorescence read-out, 2% DMSO, RT; read-out: IC50 ATX Activity. In a few lines: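 Choline liberated from LPC by autotaxin during 1 h, after a 10-min RT compound preincubation, was converted through choline oxidase/HRP to a fluorescent Ampliflu Red product.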
For `CC(C)[C@@H](NC(=O)c1cc(C(F)(F)F)ccc1Cl)C(=O)N1CCC2(CC1)C(=O)N(C)C(=O)N2c1ccc2[nH]ncc2c1` [Example 68, (R)—N-(1-(1-(1H-Indazol-5-yl)-3-methyl-2,4-dioxo-1,3,8-triazaspiro[4.5]decan-8-yl)-3-methyl-1-oxobutan-2-yl)-2-chloro-5-(trifluoromethyl)benzamide], the IC50 was at least 1000 nM.
As for `CCc1ccc(F)c(C(=O)N[C@@H](C(=O)N2CCC3(CC2)C(=O)N(C)CN3c2ccc(C(=O)O)cc2)C(C)C)c1` [Example 152, (R)-4-(8-(2-(5-Ethyl-2-fluorobenzamido)-3-methylbutanoyl)-3-methyl-4-oxo-1,3,8-triazaspiro[4.5]decan-1-yl)benzoic Acid], the IC50 was below 500 nM.
In the case of `CCc1ccc(F)c(C(=O)N[C@@H](C(=O)N2CCC3(CC2)C(=O)N(C)CN3c2ccc3oc(=O)n(C)c3c2)C(C)C)c1` [Example 203, (R)-5-Ethyl-2-fluoro-N-(3-methyl-1-(3-methyl-1-(3-methyl-2-oxo-2,3-dihydrobenzo[d]oxazol-5-yl)-4-oxo-1,3,8-triazaspiro[4.5]decan-8-yl)-1-oxobutan-2-yl)benzamide], the IC50 was below 500 nM.
Turning to `CN1CN(c2ccc(C(=O)O)cc2)C2(CCN(C(=O)[C@H](NC(=O)c3cc(C(F)(F)F)ccc3F)C(C)(C)C)CC2)C1=O` [Example 159], the IC50 was at least 1000 nM.
As to `CCc1ccc(F)c(C(=O)N[C@@H](C(=O)N2CCC3(CC2)C(=O)N(C)[C@@H](C)N3c2ccc(C(=O)O)cc2)C(C)C)c1` (single isomer, unassigned) [Example 211], the IC50 was below 500 nM.
Turning to `CC(C)[C@@H](NC(=O)c1cc(C(F)(F)F)ccc1F)C(=O)N1CCC2(CC1)C(=O)N(C)C(=O)N2c1ccncc1` [Example 239, (R)-2-Fluoro-N-(3-methyl-1-(3-methyl-2,4-dioxo-1-(pyridin-4-yl)-1,3,8-triazaspiro[4.5]decan-8-yl)-1-oxobutan-2-yl)-5-(trifluoromethyl)benzamide], the IC50 was below 500 nM.
Turning to `CC(C)[C@@H](NC(=O)c1cc(C(F)(F)F)ccc1F)C(=O)N1CCC2(CC1)C(=O)N(CCN(C)C)CN2c1ccc(C(=O)O)cc1` [Example 238, (R)-4-(3-(2-(Dimethylamino)ethyl)-8-(2-(2-fluoro-5-(trifluoromethyl)benzamido)-3-methylbutanoyl)-4-oxo-1,3,8-triazaspiro[4.5]decan-1-yl)benzoic Acid trifluoroacetic Acid Salt], the 50% inhibitory concentration (IC50) was below 500 nM.
With `CC(C)[C@@H](NC(=O)c1cc(C(F)(F)F)ccc1F)C(=O)N1CCC2(CC1)C(=O)N(C)C(=O)N2c1ccn(C)n1` [Example 16, (R)-2-Fluoro-N-(3-methyl-1-(3-methyl-1-(1-methyl-1H-pyrazol-3-yl)-2,4-dioxo-1,3,8-triazaspiro[4.5]decan-8-yl)-1-oxobutan-2-yl)-5-(trifluoromethyl)benzamide], the IC50 was at least 1000 nM.
Consider `Cc1cccc(C(=O)N[C@@H](C(=O)N2CCC3(CC2)C(=O)N(C)CN3c2ccccc2Cl)C(C)C)c1` [Example 196, (R)—N-(1-(1-(2-Chlorophenyl)-3-methyl-4-oxo-1,3,8-triazaspiro[4.5]decan-8-yl)-3-methyl-1-oxobutan-2-yl)-3-methylbenzamide], for which the IC50 is below 500 nM.
Under `CC(C)[C@@H](NC(=O)c1cc(C(F)(F)F)ccc1F)C(=O)N1CCC2(CC1)C(=O)N(C)[C@H](C)N2c1ccc(C(=O)O)cc1` [Example 212, 4-((R)-8-((R)-2-(2-Fluoro-5-(trifluoromethyl)benzamido)-3-methylbutanoyl)-2,3-dimethyl-4-oxo-1,3,8-triazaspiro[4.5]decan-1-yl)benzoic Acid] stands below 500 nM; under `COc1ccc(N2C(=O)N(C)C(=O)C23CCN(C(=O)[C@H](NC(=O)c2cc(C(F)(F)F)ccc2F)C(C)C)CC3)cc1` [Example 51, (R)-2-Fluoro-N-(1-(1-(4-methoxyphenyl)-3-methyl-2,4-dioxo-1,3,8-triazaspiro[4.5]decan-8-yl)-3-methyl-1-oxobutan-2-yl)-5-(trifluoromethyl)benzamide], below 500 nM; under `CCc1ccc(F)c(C(=O)N[C@@H](C(=O)N2CCC3(CC2)C(=O)N(C)CN3c2ccc(=O)n(C)c2)C(C)C)c1` [Example 201, (R)-5-Ethyl-2-fluoro-N-(3-methyl-1-(3-methyl-1-(1-methyl-6-oxo-1,6-dihydropyridin-3-yl)-4-oxo-1,3,8-triazaspiro[4.5]decan-8-yl)-1-oxobutan-2-yl)benzamide], below 500 nM.
On to `CCc1ccc(F)c(C(=O)N[C@@H](C(=O)N2CCC3(CC2)C(=O)N(CC#N)CN3c2ccccc2)C(C)C)c1` [Example 178, (R)—N-(1-(3-(Cyanomethyl)-4-oxo-1-phenyl-1,3,8-triazaspiro[4.5]decan-8-yl)-3-methyl-1-oxobutan-2-yl)-5-ethyl-2-fluorobenzamide], for which the half-inhibitory concentration (IC50) is below 500 nM.
Turning to `CC(C)[C@@H](NC(=O)c1cc(C(F)(F)F)ccc1F)C(=O)N1CCC2(CC1)C(=O)N(C)C(=O)N2c1ccc(Cl)cc1` [Example 181, (R)—N-(1-(1-(4-Chlorophenyl)-3-methyl-2,4-dioxo-1,3,8-triazaspiro[4.5]decan-8-yl)-3-methyl-1-oxobutan-2-yl)-2-fluoro-5-(trifluoromethyl)benzamide], the half-maximal inhibitory concentration (IC50) was below 500 nM.
On to `CC(C)[C@@H](NC(=O)c1cc(C(F)(F)F)ccc1F)C(=O)N1CCC2(CC1)C(=O)N(C)C(=O)N2Cc1ccc(=O)n(C)c1` [Example 120, (R)-2-Fluoro-N-(3-methyl-1-(3-methyl-1-((1-methyl-6-oxo-1,6-dihydropyridin-3-yl)methyl)-2,4-dioxo-1,3,8-triazaspiro[4.5]decan-8-yl)-1-oxobutan-2-yl)-5-(trifluoromethyl)benzamide], for which the IC50 fell in the range of 500 to 1000 nM.
As for `CC(C)[C@@H](NC(=O)c1cc(C(F)(F)F)ccc1F)C(=O)N1CCC2(CC1)C(=O)N(C)C(=O)N2Cc1ccc(S(C)(=O)=O)cc1` [Example 93, (R)-2-Fluoro-N-(3-methyl-1-(3-methyl-1-(4-(methylsulfonyl)benzyl)-2,4-dioxo-1,3,8-triazaspiro[4.5]decan-8-yl)-1-oxobutan-2-yl)-5-(trifluoromethyl)benzamide], the IC50 was at least 1000 nM.
With `CN1C(=O)N(c2ccc3[nH]ncc3c2)C2(CCN(C(=O)[C@H](NC(=O)c3cc(C(F)(F)F)ccc3F)C3CCC3)CC2)C1=O` [Example 58, (R)—N-(2-(1-(1H-Indazol-5-yl)-3-methyl-2,4-dioxo-1,3,8-triazaspiro[4.5]decan-8-yl)-1-cyclobutyl-2-oxoethyl)-2-fluoro-5-(trifluoromethyl)benzamide], the concentration for half-maximal inhibition (IC50) was below 500 nM.
Next, `Cc1nc2cc(CN3C(=O)N(C)C(=O)C34CCN(C(=O)[C@H](NC(=O)c3cc(C(F)(F)F)ccc3F)C(C)C)CC4)ccc2o1` [Example 116, (R)-2-Fluoro-N-(3-methyl-1-(3-methyl-1-((2-methylbenzo[d]oxazol-5-yl)methyl)-2,4-dioxo-1,3,8-triazaspiro[4.5]decan-8-yl)-1-oxobutan-2-yl)-5-(trifluoromethyl)benzamide]: below 500 nM.
For `CC(C)[C@@H](NC(=O)C12CC3CC(CC(C3)C1)C2)C(=O)N1CCC2(CC1)C(=O)N(C)C(=O)N2c1ccc2[nH]ncc2c1` [Example 67, (R)—N-(1-(1-(1H-Indazol-5-yl)-3-methyl-2,4-dioxo-1,3,8-triazaspiro[4.5]decan-8-yl)-3-methyl-1-oxobutan-2-yl)-1-admantanecarboxly amide], the IC50 is at least 1000 nM.

Usually IC50 stands for the point on the concentration scale where inhibition reaches its midpoint.
